Measured values reported in patent US10206909B2, “3-(1H-pyrrolo[2,3-B]pyridin-2-yl)-1H-pyrazolo[4,3-B]pyridines and therapeutic uses thereof” (Samumed, LLC, priority 2015, dated 2019).
Values belong to the compound of their own block, whether it stands above or below them.

Tests used:
Assay type in all cases: cell-based
[1] = test system: Wnt activity (Sp5-Luc reporter, SW480 colon carcinoma cells); assay: Wnt activity screening assay: Sp5-Luc reporter gene assay in SW480 cells; conditions: Homo sapiens; for EC50: SW480 cells, overnight incubation; for inhibition at 10 µM: given where EC50 >10 μM, SW480, read-out: percent inhibition at 10 μM
Source text: The screening assay for Wnt activity is described as follows. Reporter cell lines can be generated by stably transducing cancer cell lines (e.g., colon cancer) or primary cells (e.g., IEC-6 intestinal cells) with a lentiviral construct that includes a Wnt-responsive promoter driving expression of the firefly luciferase gene.
SW480 colon carcinoma cells were transduced with a lentiviral vector expressing luciferase with a human Sp5 promoter consisting of a sequence of eight TCF/LEF binding sites. SW480 cells stably expressing the Sp5-Luc reporter gene and a hygromycin resistance gene were selected by treatment with 150 μg/mL of hygromycin for 7 days. These stably transduced SW480 cells were expanded in cell culture and used for all further screening activities. Each compound was dissolved in DMSO as a 10 mM stock and used to prepare compound source plates. Serial dilution (1:3, 10-point dose-response curves starting from 10 μM) and compound transfer was performed using the ECHO 550 (Labcyte, Sunnyvale, Calif.) into 384-well white solid bottom assay plates (Greiner Bio-One) with appropriate DMSO backfill for a final DMSO concentration of 0.1%. For Sp5-Luc reporter gene assays, the cells were plated at 4,000 cells/well in 384-well plates with medium containing 1% fetal bovine serum and incubated overnight at 37° C. and 5% CO2. Following incubation, 20 μl of BrightGlo luminescence reagent (Promega) was added to each well of the 384-well assay plates. The plates were placed on an orbital shaker for 2 min and then luminescence was quantified using the Envision (Perkin Elmer) plate reader. Readings were normalized to DMSO only treated cells, and normalized activities were utilized for EC50 calculations using the dose-response log (inhibitor) vs. response -variable slope (four parameters) nonlinear regression feature available in GraphPad Prism 5.0 (or Dotmatics). For EC50 of >10 μM, the percent inhibition at 10 μM is provided.

SW480 colon cancer cells = assay: Cell viability assay (CellTiter-Blue); conditions: Homo sapiens; for EC50: 96 h, SW480 cell viability, four days, CellTiter-Blue; for inhibition at 10 µM: given where EC50 >10 μM, SW480 viability, read-out: percent inhibition at 10 μM
Experimental: Representative compounds were screened using the following assay procedure to assess the effect on cell viability as described below.
Each compound was dissolved in DMSO as a 10 mM stock and used to prepare compound source plates. Serial dilution (1:3, 8-point dose-response curves from 10 μM to 0.0045 μM) and compound transfer was performed using the ECHO 550 (Labcyte, Sunnyvale, Calif.) into 96-well clear bottom, black-walled plates (Corning-Costar).
Approximately 2×10^3 SW480 colon cancer cells were seeded into each well and allowed to incubate in the presence or absence of compound for four days at 37° C./5% CO2. Eight replicates of DMSO-treated cells served as controls and cells treated with compound were performed in duplicate.
After incubation, 20 μL of CellTiter-Blue (Promega) was added to each well allowed to incubate for approximately 3 hours. This reagent was a buffered solution which contains resazurin, metabolically active cells were able to reduce rezarurin (blue) into resorufin (pink) which was highly fluorescent. This measured fluorescence was used as a readout for cell viability.
After incubation, the plates were read at Ex 560 nm Em 590 nm (Cytation 3, BioTek). Dose-response curves were generated and EC50 concentration values were calculated using non-linear regression curve fit in the GraphPad Prism (San Diego, Calif.) or Dotmatics' Studies Software (Bishops Stortford, UK). For EC50 of >10 μM, the percent inhibition at 10 μM is provided.

[2] = test system: primary human fibroblasts derived from IPF patients (LL29 cells); assay: Inhibition of the fibrotic process: αSMA staining in TGF-β1 treated fibroblasts; conditions: Fibroblast; for EC50: 96 h, LL29 cells, TGF-β1 20 ng/mL, 4 days, % αSMA positive cells; for inhibition at 10 µM: given where EC50 >10 μM, LL29, αSMA, read-out: percent inhibition at 10 μM
Source text: Representative compounds were screened using primary human fibroblasts (derived from IPF patients) treated with TGF-β1 to determine their ability to inhibit the fibrotic process.
Human Fibroblast Cell Culture: Primary human fibroblasts derived from IPF patients (LL29 cells) [^1Xiaoqiu Liu, et. al., “Fibrotic Lung Fibroblasts Show Blunted Inhibition by cAMP Due to Deficient cAMP Response Element-Binding Protein Phosphorylation”, Journal of Pharmacology and Experimental Therapeutics (2005), 315(2), 678-687; ^2Watts, K. L., et. al., “RhoA signaling modulates cyclin D1 expression in human lung fibroblasts; implications for idiopathic pulmonary fibrosis”, Respiratory Research (2006), 7(1), 88] were obtained from American Type Culture Collection (ATCC) and expanded in F12 medium supplemented with 15% Fetal Bovine Serum and Penicillin/Streptomycin.
Compound Screening: Each compound was dissolved in DMSO as a 10 mM stock and used to prepare compound source plates. Serial dilution (1:2, 11-point dose-response curves from 10 μM to […]) and compound transfer was performed using the ECHO 550 (Labcyte, Sunnyvale, Calif.) into 384-well clear bottom assay plates (Greiner Bio-One) with appropriate DMSO backfill for a final DMSO concentration of 0.1%. LL29 cells are plated at 1,500 cells/well in 80 μL/well F12 medium supplemented with 1% Fetal Bovine Serum. One hour after addition of the cells, TGF-β1 (Peprotech; 20 ng/mL) was added to the plates to induce fibrosis (ref. 1 and 2 above). Wells treated with TGF-β1 and containing DMSO were used as controls. Cells were incubated at 37° C. and 5% CO2 for 4 days. Following incubation for 4 days, SYTOX green nucleic acid stain (Life Technologies [Thermo Fisher Scientific]) was added to the wells at a final concentration of 1 μM and incubated at room temperature for 30 min. Cells were then fixed using 4% formaldehyde (Electron Microscopy Sciences), washed 3 times with PBS followed by blocking and permeabilization using 3% Bovine Serum Albumin (BSA; Sigma) and 0.3% Triton X-100 (Sigma) in PBS. Cells were then stained with antibody specific to α-smooth muscle actin (αSMA; Abcam) (ref. 1 and 2 above) in 3% Bovine Serum Albumin (BSA; Sigma) and 0.3% Triton X-100 (Sigma) in PBS, and incubated overnight at 4° C. Cells were then washed 3 times with PBS, followed by incubation with Alexa Flor-647 conjugated secondary antibody (Life Technologies [Thermo Fisher Scientific]) and DAPI at room temperature for 1 hour. Cells were then washed 3 times with PBS and plates were sealed for imaging. αSMA staining was imaged by excitation at 630 nm and emission at 665 nm and quantified using the Compartmental Analysis program on the CellInsight CX5 (Thermo Scientific). Dead or apoptotic cells were excluded from analysis based on positive SYTOX green staining. % of total cells positive for αSMA were counted in each well and normalized to the average of 11 wells treated with TGF-β1 on the same plate using Dotmatics' Studies Software. The normalized averages (fold change over untreated) of 3 replicate wells for each compound concentration were used to create dose-responses curves and EC50 values were calculated using non-linear regression curve fit in the Dotmatics' Studies Software. For EC50 of >10 μM, the percent inhibition at 10 μM is provided.

SMILES: CN1CCN(c2ccnc3[nH]c(-c4n[nH]c5ccc(-c6cn[nH]c6)nc45)cc23)CC1 [Compound 635, 3-(4-(4-Methylpiperazin-1-yl)-1H-pyrrolo[2,3-b]pyridin-2-yl)-5-(1H-pyrazol-4-yl)-1H-pyrazolo[4,3-b]pyridine]
- EC50 [1]: > 10 µM
- inhibition at 10 µM [1]: 13.4%
- EC50 (SW480 colon cancer cells): > 10 µM
- inhibition at 10 µM (SW480 colon cancer cells): 13.3%
- EC50 [2]: 1.5 µM

SMILES: CC(C)CC(=O)Nc1cncc(-c2ccc3[nH]nc(-c4cc5c(-c6ccccc6F)ccnc5[nH]4)c3n2)c1 [Compound 58, N-(5-(3-(4-(2-Fluorophenyl)-1H-pyrrolo[2,3-b]pyridin-2-yl)-1H-pyrazolo [4,3-b]pyridin-5-yl)pyridin-3-yl)-3-methylbutanamide]
- EC50 [1]: 0.517 µM
- EC50 (SW480 colon cancer cells): > 10 µM
- inhibition at 10 µM (SW480 colon cancer cells): 11.5%
- EC50 [2]: > 10 µM
- inhibition at 10 µM [2]: 18.2%

SMILES: CN1CCN(c2ccnc3[nH]c(-c4n[nH]c5ccc(-c6cncc(NC(=O)c7ccccc7)c6)nc45)cc23)CC1 [Compound 235, N-(5-(3-(4-(4-Methylpiperazin-1-yl)-1H-pyrrolo[2,3-b]pyridin-2-yl)-1H-pyrazolo[4,3-b]pyridin-5-yl)pyridin-3-yl)benzamide]
- EC50 [1]: 6.09 µM
- EC50 (SW480 colon cancer cells): 3.27 µM
- EC50 [2]: 3.22 µM

SMILES: O=C(Nc1cncc(-c2ccc3[nH]nc(-c4cc5c(-c6ccc(F)cc6)ccnc5[nH]4)c3n2)c1)c1ccccc1 [Compound 39, N-(5-(3-(4-(4-Fluorophenyl)-1H-pyrrolo[2,3-b]pyridin-2-yl)-1H-pyrazolo [4,3-b]pyridin-5-yl)pyridin-3-yl)benzamide]
- EC50 [1]: > 10 µM
- inhibition at 10 µM [1]: 0%
- EC50 (SW480 colon cancer cells): > 10 µM
- inhibition at 10 µM (SW480 colon cancer cells): 11.1%
- EC50 [2]: 7.79 µM

SMILES: c1cncc(-c2ccc3[nH]nc(-c4cc5cccnc5[nH]4)c3n2)c1 [Compound 256, 5-(Pyridin-3-yl)-3-(1H-pyrrolo[2,3-b]pyridin-2-yl)-1H-pyrazolo[4,3-b]pyridine]
- EC50 [1]: > 10 µM
- inhibition at 10 µM [1]: 47%
- EC50 (SW480 colon cancer cells): > 10 µM
- inhibition at 10 µM (SW480 colon cancer cells): 23.2%
- EC50 [2]: 0.308 µM

SMILES: CN(C)c1cncc(-c2ccc3[nH]nc(-c4cc5c(-c6cccnc6)ccnc5[nH]4)c3n2)c1 [Compound 91, N,N-Dimethyl-5-(3-(4-(pyridin-3-yl)-1H-pyrrolo[2,3-b]pyridin-2-yl)-1H-pyrazolo[4,3-b]pyridin-5-yl)pyridin-3-amine]
- EC50 [1]: > 10 µM
- inhibition at 10 µM [1]: 18.2%
- EC50 (SW480 colon cancer cells): > 10 µM
- inhibition at 10 µM (SW480 colon cancer cells): 3.5%
- EC50 [2]: 2.19 µM

More lines, main results first:

- EC50 [1]: > 10 µM
- EC50 (SW480 colon cancer cells): 4.7 µM
SMILES: O=C(Nc1cncc(-c2ccc3[nH]nc(-c4cc5c(-c6ccccc6F)ccnc5[nH]4)c3n2)c1)C1CC1 [Compound 76, N-(5-(3-(4-(2-Fluorophenyl)-1H-pyrrolo[2,3-b]pyridin-2-yl)-1H-pyrazolo [4,3-b]pyridin-5-yl)pyridin-3-yl)cyclopropanecarboxamide]
- inhibition at 10 µM [1]: 37.3%
- EC50 [2]: 5.26 µM

- EC50 [1]: 0.31 µM
- EC50 (SW480 colon cancer cells): > 10 µM
SMILES: Oc1cncc(-c2ccc3[nH]nc(-c4cc5c(-c6ccc(F)cc6)ccnc5[nH]4)c3n2)c1 [Compound 533, 5-(3-(4-(4-Fluorophenyl)-1H-pyrrolo[2,3-b]pyridin-2-yl)-1H-pyrazolo[4,3-b]pyridin-5-yl)pyridin-3-ol]
- inhibition at 10 µM (SW480 colon cancer cells): 15.4%
- EC50 [2]: > 10 µM
- inhibition at 10 µM [2]: 43%

- EC50 [1]: > 10 µM
- EC50 (SW480 colon cancer cells): > 10 µM
SMILES: c1cc(N2CCCCC2)c2cc(-c3n[nH]c4ccc(-c5cncc(CN6CCCCC6)c5)nc34)[nH]c2n1 [Compound 183, 3-(4-(Piperidin-1-yl)-1H-pyrrolo[2,3-b]pyridin-2-yl)-5-(5-(piperidin-1-ylmethyl)pyridin-3-yl)-1H-pyrazolo[4,3-b]pyridine]
- inhibition at 10 µM [1]: 6.5%
- inhibition at 10 µM (SW480 colon cancer cells): 45.5%
- EC50 [2]: > 10 µM
- inhibition at 10 µM [2]: 0%

- EC50 [1]: > 10 µM
- EC50 (SW480 colon cancer cells): > 10 µM
SMILES: c1cncc(-c2ccc3[nH]nc(-c4cc5c(-c6cccnc6)ccnc5[nH]4)c3n2)c1 [Compound 88, 5-(Pyridin-3-yl)-3-(4-(pyridin-3-yl)-1H-pyrrolo[2,3-b]pyridin-2-yl)-1H-pyrazolo[4,3-b]pyridine]
- inhibition at 10 µM [1]: 10.1%
- inhibition at 10 µM (SW480 colon cancer cells): 31.2%
- EC50 [2]: > 10 µM
- inhibition at 10 µM [2]: 25.3%

- EC50 [1]: 5.27 µM
- EC50 (SW480 colon cancer cells): > 10 µM
SMILES: FC1(F)CCN(Cc2cncc(-c3ccc4[nH]nc(-c5cc6c(N7CCCCC7)ccnc6[nH]5)c4n3)c2)C1 [Compound 194, 5-(5-((3,3-Difluoropyrrolidin-1-yl)methyl)pyridin-3-yl)-3-(4-(piperidin-1-yl)-1H-pyrrolo[2,3-b]pyridin-2-yl)-1H-pyrazolo[4,3-b]pyridine]
- inhibition at 10 µM (SW480 colon cancer cells): 28.3%
- EC50 [2]: 2.55 µM

- EC50 [1]: > 10 µM
- EC50 (SW480 colon cancer cells): > 10 µM
SMILES: c1ccc(-c2ccc3[nH]nc(-c4cc5c(N6CCCCC6)ccnc5[nH]4)c3n2)nc1 [Compound 196, 3-(4-(Piperidin-1-yl)-1H-pyrrolo[2,3-b]pyridin-2-yl)-5-(pyridin-2-yl)-1H-pyrazolo[4,3-b]pyridine]
- inhibition at 10 µM [1]: 9.8%
- inhibition at 10 µM (SW480 colon cancer cells): 2.4%
- EC50 [2]: 2.05 µM

- EC50 [1]: > 10 µM
- EC50 (SW480 colon cancer cells): 3.72 µM
SMILES: c1cc(-c2ccnc3[nH]c(-c4n[nH]c5ccc(-c6cncc(CNCC7CCCC7)c6)nc45)cc23)ccn1 [Compound 137, 1-Cyclopentyl-N-((5-(3-(4-(pyridin-4-yl)-1H-pyrrolo[2,3-b]pyridin-2-yl)-1H-pyrazolo[4,3-b]pyridin-5-yl)pyridin-3-yl)methyl)methanamine]
- inhibition at 10 µM [1]: 19.5%
- EC50 [2]: > 10 µM
- inhibition at 10 µM [2]: 23.8%
